Laboratory results: ChEMBL document CHEMBL1782003, “Development and SAR of functionally selective allosteric modulators of GABAA receptors” (Bioorg Med Chem, 2011)
In brackets after ≈: the same amount, converted by molar mass.

Experiment: physchem
Details: DMSO

SMILES | solubility [µM]
COc1ccc(-c2c(F)ccc3c(N)c(C(=O)NC4CC4)nnc23)c(OC)n1 | 2 (≈ 0.767 µg/mL)
CCCNC(=O)c1nnc2c(-c3cc(C)ccc3OC)cccc2c1N | 8.3 (≈ 2.91 µg/mL)
COc1ccc(OC)c(-c2cccc3c(N)c4c(nc23)CN(C2CCCC2)C4=O)c1 | 2.9 (≈ 1.17 µg/mL)
CCCNC(=O)c1nnc2c(-c3cc(C)ccc3C)cccc2c1N | 1.4 (≈ 0.468 µg/mL)
COc1ccc(OC)c(-c2c(F)ccc3c(N)c4c(nc23)CN(C2CC2)C4=O)c1 | 1 (≈ 0.393 µg/mL)
COc1ccc(OC)c(-c2cccc3c(N)c(C(=O)NC4CC(C)C4)nnc23)c1 (stereo not given) | 1.8 (≈ 0.706 µg/mL)
CCNC(=O)c1nnc2c(-c3cc(OC)ccc3OC)cccc2c1N | 8.2 (≈ 2.89 µg/mL)
CCN1Cc2nc3c(-c4cc(OC)ccc4OC)c(F)ccc3c(N)c2C1=O | 0.3 (≈ 0.114 µg/mL)
CCN1Cc2nc3c(-c4cc(OC)ccc4OC)cccc3c(N)c2C1=O | 0.5 (≈ 0.182 µg/mL)
CCCNC(=O)c1nnc2c(-c3ccc(C)cc3C)cccc2c1N | 0.8 (≈ 0.268 µg/mL)
CCCNC(=O)c1nnc2c(-c3cnc(OC)nc3OC)cccc2c1N | 1.9 (≈ 0.7 µg/mL)
COc1ccc(OC)c(-c2cccc3c(N)c(C(=O)NC(C)C)nnc23)c1 | 4.7 (≈ 1.72 µg/mL)
CCCNC(=O)c1nnc2c(-c3cc(C)cc(C)c3)cccc2c1N | 0.8 (≈ 0.268 µg/mL)
COc1ccc(OC)c(-c2cccc3c(N)c(C(=O)NC4CC4)nnc23)c1 | 8.9 (≈ 3.24 µg/mL)
CCCNC(=O)c1nnc2c(-c3cc(OC)ccc3OC)c(F)ccc2c1N | 3.3 (≈ 1.27 µg/mL)
CCCNC(=O)c1nnc2c(-c3cnccc3OC)cccc2c1N | 28.1 (≈ 9.48 µg/mL)
COc1ccc(OC)c(-c2cccc3c(N)c4c(nc23)CN(C2CC2)C4=O)c1 | 4.9 (≈ 1.84 µg/mL)
CCCNC(=O)c1nnc2c(-c3ccccc3C)cccc2c1N | 26.8 (≈ 8.59 µg/mL)
COc1ccc(OC)c(-c2cccc3c(N)c4c(nc23)CN(C2CC(C)C2)C4=O)c1 (stereo not given) | 0.9 (≈ 0.363 µg/mL)
COc1ccc(OC)c(-c2cccc3c(N)c4c(nc23)CN(C2CCC2)C4=O)c1 | 2.3 (≈ 0.896 µg/mL)
CCCNC(=O)c1nnc2c(-c3cccc(C)c3)cccc2c1N | 8 (≈ 2.56 µg/mL)
COc1ccc(OC)c(-c2c(F)ccc3c(N)c4c(nc23)CN(C2CCC2)C4=O)c1 | 1 (≈ 0.407 µg/mL)
COc1ccc(OC)c(-c2cccc3c(N)c(C(=O)NCCC(F)(F)F)nnc23)c1 | 2.8 (≈ 1.18 µg/mL)

The next lines start with the values.

solubility [µM] | SMILES
4.3 (≈ 1.63 µg/mL) | COc1ccc(OC)c(-c2cccc3c(N)c(C(=O)NC4CCC4)nnc23)c1
1.2 (≈ 0.457 µg/mL) | CCC(C)NC(=O)c1nnc2c(-c3cc(OC)ccc3OC)cccc2c1N (stereo not given)
3.9 (≈ 1.43 µg/mL) | CCCNC(=O)c1nnc2c(-c3cc(OC)ccc3OC)cccc2c1N [AZD6280]
6.2 (≈ 2.38 µg/mL) | COc1cc(-c2c(F)ccc3c(N)c(C(=O)NC4CC4)nnc23)c(OC)nn1
7.6 (≈ 2.69 µg/mL) | CCCNC(=O)c1nnc2c(-c3c(F)cccc3OC)cccc2c1N [AZD7325]
2.8 (≈ 1.11 µg/mL) | COc1ccc(OC)c(-c2c(F)ccc3c(N)c(C(=O)NC4CCC4)nnc23)c1
4.6 (≈ 1.32 µg/mL) | CCCNC(=O)c1nnc2c(CC(C)C)cccc2c1N
8.8 (≈ 3.37 µg/mL) | COc1ccc(OC)c(-c2c(F)ccc3c(N)c(C(=O)NC4CC4)nnc23)c1
10.8 (≈ 3.77 µg/mL) | COc1ncc(C)cc1-c1cccc2c(N)c(C(=O)NC3CC3)nnc12
0.8 (≈ 0.28 µg/mL) | COc1ccc(OC)c(-c2cccc3c(N)c4c(nc23)CN(C)C4=O)c1
7.8 (≈ 3 µg/mL) | COc1ccc(OC)c(-c2c(F)ccc3c(N)c(C(=O)NC(C)C)nnc23)c1
3.4 (≈ 1.06 µg/mL) | CCCN1Cc2nc3c(CC(C)(C)C)cccc3c(N)c2C1=O
2.6 (≈ 0.88 µg/mL) | CNC(=O)c1nnc2c(-c3cc(OC)ccc3OC)cccc2c1N
11 (≈ 4.21 µg/mL) | COc1ccc(OC)c(-c2cccc3c(N)c(C(=O)NCCCO)nnc23)c1
5 (≈ 1.85 µg/mL) | CCNC(=O)c1nnc2c(-c3cc(OC)ccc3OC)c(F)ccc2c1N
2 (≈ 0.811 µg/mL) | CCC(C)(C)N1Cc2nc3c(-c4cc(OC)ccc4OC)cccc3c(N)c2C1=O
9.5 (≈ 2.91 µg/mL) | CCCNC(=O)c1nnc2c(-c3ccccc3)cccc2c1N
